Where a name gives a salt, the structure may show the parent alone.
Assays:
opioid δ receptor = molecular target: T1, opioid δ receptor (Rattus norvegicus, UniProt P33533); assay: Opioid δ receptor binding, [3H]DADLE displacement in rat brain membranes; details: for Ki: displacement of [3H]DADLE (1.3-2.0 nM), rat brain membranes, 100 nM DAMGO to block μ sites, read-out: Ki (nM) ± SEM δ
T1 construct: Rat membranes are prepared each day using a partially thawed frozen rat brain; from tissue; host or cells: rat brain membranes
T1 sequence (P33533 whole entry): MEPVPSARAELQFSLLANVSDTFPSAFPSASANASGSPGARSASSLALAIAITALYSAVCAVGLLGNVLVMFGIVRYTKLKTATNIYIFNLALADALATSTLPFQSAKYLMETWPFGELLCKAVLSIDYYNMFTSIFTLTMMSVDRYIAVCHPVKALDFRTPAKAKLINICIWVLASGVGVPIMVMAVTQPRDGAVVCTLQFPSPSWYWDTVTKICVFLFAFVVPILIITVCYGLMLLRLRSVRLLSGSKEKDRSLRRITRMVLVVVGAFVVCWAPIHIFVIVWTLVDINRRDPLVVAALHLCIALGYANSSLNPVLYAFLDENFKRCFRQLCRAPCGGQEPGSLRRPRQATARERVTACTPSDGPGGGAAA

opioid κ receptor = opioid κ receptor (Cavia porcellus, UniProt P41144); details: for selectivity ratio κ/δ: ratio of binding Ki values; for Ki: read-out: Ki (nM) ± SEM κ, displacement of [3H]U69,593 (1.2-[…]), guinea pig brain membranes
Sequence of opioid κ receptor (P41144 whole entry): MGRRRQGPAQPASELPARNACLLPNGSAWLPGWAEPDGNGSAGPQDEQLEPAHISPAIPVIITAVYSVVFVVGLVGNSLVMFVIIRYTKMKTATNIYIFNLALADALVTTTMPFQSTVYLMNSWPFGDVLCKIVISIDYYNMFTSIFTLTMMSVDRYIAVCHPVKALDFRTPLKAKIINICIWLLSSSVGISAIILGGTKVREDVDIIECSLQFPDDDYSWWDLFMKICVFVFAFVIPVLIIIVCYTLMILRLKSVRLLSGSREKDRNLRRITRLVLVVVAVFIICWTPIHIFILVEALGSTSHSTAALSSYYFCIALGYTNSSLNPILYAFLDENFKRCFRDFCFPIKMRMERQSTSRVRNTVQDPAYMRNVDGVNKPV

opioid μ receptor = opioid μ receptor (Rattus norvegicus, UniProt P33535); details: for selectivity ratio μ/δ: ratio of binding Ki values; for Ki: read-out: Ki (nM) ± SEM μ, displacement of [3H]DAMGO (1.4-3.0 nM), rat brain membranes
Sequence of opioid μ receptor (P33535 whole entry): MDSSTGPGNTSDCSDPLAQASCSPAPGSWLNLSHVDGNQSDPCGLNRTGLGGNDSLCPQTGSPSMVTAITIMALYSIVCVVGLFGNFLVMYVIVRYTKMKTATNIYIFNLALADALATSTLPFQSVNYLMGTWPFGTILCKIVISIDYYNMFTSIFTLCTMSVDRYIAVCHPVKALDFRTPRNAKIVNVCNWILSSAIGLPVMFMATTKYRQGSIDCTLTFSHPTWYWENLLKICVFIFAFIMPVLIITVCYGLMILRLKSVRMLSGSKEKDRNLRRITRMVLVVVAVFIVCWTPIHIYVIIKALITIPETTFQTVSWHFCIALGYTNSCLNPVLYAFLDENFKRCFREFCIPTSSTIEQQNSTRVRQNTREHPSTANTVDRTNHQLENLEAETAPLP

δ receptor [1] = molecular target: T2, δ receptor (Cavia porcellus, UniProt A0A286XTF2); assay: biochemical; parameters: Emax: dose or concentration left out as unconfirmed
T2 sequence (A0A286XTF2 1-366): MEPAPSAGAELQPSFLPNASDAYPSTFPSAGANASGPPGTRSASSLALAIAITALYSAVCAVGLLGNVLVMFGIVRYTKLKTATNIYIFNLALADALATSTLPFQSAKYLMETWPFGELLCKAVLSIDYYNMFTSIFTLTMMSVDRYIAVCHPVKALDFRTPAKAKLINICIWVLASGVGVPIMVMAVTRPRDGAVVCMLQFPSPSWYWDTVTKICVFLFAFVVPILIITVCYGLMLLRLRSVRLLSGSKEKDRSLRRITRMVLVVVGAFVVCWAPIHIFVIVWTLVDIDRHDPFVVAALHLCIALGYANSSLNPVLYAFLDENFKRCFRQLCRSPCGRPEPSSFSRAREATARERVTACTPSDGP

μ receptor [2] = molecular target: T3, μ receptor (Cavia porcellus, UniProt A0ACM8Q262); assay: biochemical; parameters: dose or concentration left out as unconfirmed; details: read-out: agonist activity Emax % μ
T3 sequence (A0ACM8Q262 1-400): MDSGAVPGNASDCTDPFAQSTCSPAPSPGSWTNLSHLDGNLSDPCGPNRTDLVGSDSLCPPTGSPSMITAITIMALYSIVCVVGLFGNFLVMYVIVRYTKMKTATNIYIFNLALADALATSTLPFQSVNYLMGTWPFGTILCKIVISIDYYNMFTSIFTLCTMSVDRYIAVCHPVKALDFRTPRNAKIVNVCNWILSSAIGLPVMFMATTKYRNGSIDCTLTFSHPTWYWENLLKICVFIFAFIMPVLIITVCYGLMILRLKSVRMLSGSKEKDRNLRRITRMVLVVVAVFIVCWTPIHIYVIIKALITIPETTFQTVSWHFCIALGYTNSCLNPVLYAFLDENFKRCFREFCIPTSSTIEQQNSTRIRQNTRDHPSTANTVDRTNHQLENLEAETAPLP

μ receptor [3] = molecular target: T3, μ receptor; details: for Ki: read-out: antagonist activity apparent Ki (nM ± SD) μ, inhibition of DAMGO (10 μM) stimulated [35S]GTP-γ-S binding; for EC50: read-out: agonist activity EC50 (nM ± SD) μ, δ and κ sites blocked with TIPP (1 μM) and nor-BNI (6 nM)
mice = assay: 55° C. tail-flick antinociception test in mice; details: for A50: at time of peak drug effect; for naloxone sensitivity: naloxone 10 mg/kg ip, -10 min, yes = greater than 80% reduction in the antinociceptive effect
Protocol: Analgesic Testing and Assessment of Tolerance Development. The analgesic activity of selected ligands is tested in mice using the 55° C. tail-flick test as previously described. (See Wells et al., supra.) The test compounds are administered by the intracerbroventricular (icv) route. […] To determine whether the analgesic activity of the tested compounds is mediated through opioid receptors, the blockade of antinociceptive activity by pretreatment with naloxone is carried out. The analgesic activity was considered as naloxone sensitive if greater than 80% reduction in the antinociceptive response is observed.
Antinociceptive Studies. Male ICR mice (Harlan) are used for all evaluations. Mice are housed in a temperature and humidity controlled vivarium on a 12:12 h light:dark cycle with unlimited access to food and water prior to the formal procedures. […] The dihydrochloride salt of 7h is dissolved in water and injected in a volume of 5 μL. All other compounds are dissolved in 100% DMSO and injected in a volume of 5 μL. Antinociceptive assays are performed at various times after injection.
Percent antinociception is calculated using the formula: % MPE (maximal possible effect)=100×(test−control)/(cutoff−control) where control is the predrug observation, test is the postdrug observation, and cutoff is the maximal length of stimulus allowed (10 s for 55° C. tail-flick). Antinociceptive A50 values and 95% confidence intervals are determined using linear regression software (FlashCalc). Opioid activity of the test compounds are assessed by pretreating animals with naloxone (10 mg/kg ip, −10 min) followed by an icv injection of an approximate A90 dose of test compound. […] Antinociception is assessed in the 55° C. tail-flick test at 10, 20 and 30 min. A positive response to a fixed dose of naloxone is indicated when greater than 80% reduction in the antinociceptive effect of the agonist is observed.

[4] = molecular target: T4, δ receptor (mouse vas deferens) (Mus musculus, UniProt P32300); assay: Mouse vas deferens (MVD) smooth muscle bioassay; details: for IC50: inhibition of electrically stimulated contractions, read-out: agonist activity MVD (δ) IC50
T4 sequence (P32300 whole entry): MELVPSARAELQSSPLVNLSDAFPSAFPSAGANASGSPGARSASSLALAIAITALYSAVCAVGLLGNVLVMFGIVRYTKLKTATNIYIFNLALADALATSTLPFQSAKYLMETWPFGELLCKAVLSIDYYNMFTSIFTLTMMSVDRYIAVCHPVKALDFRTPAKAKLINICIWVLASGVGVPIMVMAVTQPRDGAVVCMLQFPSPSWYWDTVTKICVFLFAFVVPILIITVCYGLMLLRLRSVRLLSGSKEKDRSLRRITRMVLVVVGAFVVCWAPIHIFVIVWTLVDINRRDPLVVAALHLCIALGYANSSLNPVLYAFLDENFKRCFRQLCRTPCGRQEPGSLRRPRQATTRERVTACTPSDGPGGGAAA
Protocol: (§1) Bioassays in Smooth Muscle Preparations. The functional activity profiles of selected ligands are also determined in the mouse vas deferens (MVD) and guinea pig ileum (GPI) smooth muscle preparations as described previously.
(§2) The agonist activity is determined by the ability of the compound to inhibit electrically stimulated contractions of the GPI and MVD. The GPI is primarily a μ receptor preparation, even though the ileum does also contain κ receptors. In the MVD, the opioid effects are predominantly mediated through δ receptors, but μ and κ receptors also exist in this tissue.
(§3) Tissues came from male ICR mice weighing 25-40 g and male Hartley guinea pigs weighing 250-500 g. The tissues are tied to gold chain with suture silk, suspended in 20 mL baths containing 37° C. oxygenated (95% O2, 5% CO2) Krebs bicarbonate solution (magnesium free for the MVD), and allowed to equilibrate for 15 min. The tissues are then stretched to optimal length previously determined to be 1 g tension (0.5 g for MVD) and allowed to equilibrate for 15 min. The tissues are stimulated transmurally between platinum wire electrodes at 0.1 Hz, 0.4 ms pulses (2-ms pulses for MVD), and supramaximal voltage. […] Tissues not producing typical results are not used. Experimental compounds were added to the baths in 14-60 μL volumes. Succeeding doses of agonist are added cumulatively to the bath at 3 min intervals to produce a concentration-response curve. The tissues are then washed extensively with fresh buffer until the original contraction height is reestablished. […] The tissues are then washed with fresh buffer for 30 min, and the agonist dose-response curve was repeated. Rightward shifts in the dose-response curves are calculated by dividing the antagonized dose-response curve IC50 value by the unantagonized IC50 value. IC50 values represent the mean of two to four tissues. IC50 estimates and their associated standard errors are determined by using a computerized nonlinear least-squares method. (MINSQ Least Squares Parameter Estimation, version 3.05; MicroMath Inc., 1999.)

δ receptor [5] = molecular target: T2, δ receptor; details: δ receptors, partial inhibition with increasing concentrations
κ receptor = κ receptor (Cavia porcellus, UniProt P41144); details: read-out: antagonist activity apparent Ki (nM ± SD) κ
Sequence of κ receptor (P41144 whole entry): as the sequence (P41144 whole entry) above

[6] = molecular target: T4, δ receptor (mouse vas deferens); assay: Mouse vas deferens (MVD) smooth muscle bioassay; parameters: from tissue; host or cells: mouse vas deferens (male ICR mice)
Protocol: as §1, §2, §3

SMILES	melting point	Ki (opioid δ receptor)	selectivity ratio κ/δ (opioid κ receptor)	Ki (opioid κ receptor)	selectivity ratio μ/δ (opioid μ receptor)	Ki (opioid μ receptor)	Ki (δ receptor [1])	Emax (μ receptor [2])	Ki (μ receptor [3])	naloxone sensitivity (mice)	other results
CN1CC[C@]23c4c5ccc(O)c4O[C@H]2c2ncc(-c4ccc(Cl)cc4)cc2C[C@H]3[C@H]1C5 (as salt: salt) [7h, 5′-(4-Chlorophenyl)-6,7-didehydro-4,5α-epoxy-3-hydroxy-17-methylpyrido[2′,3′:6,7]morphinan]	276 to 278 °C (dec.)	–	–	–	–	–	–	–	–	–	–
C=CCN1CC[C@]23c4c5ccc(O)c4O[C@H]2c2ncc(-c4ccc(Cl)cc4)cc2C[C@@]3(O)[C@H]1C5 [7a, 17-(Allyl)-6,7-didehydro-3,14-dihydroxy-4,5α-epoxy-5′-(4-chlorophenyl)pyrido[2′,3′:6,7]morphinan]	168 to 172 °C	8.2 ± 0.07 nM	–	–	–	–	–	–	–	–	reduction in affinity at the δ site compared to 2c (opioid δ receptor; N-allyl vs N-CPM): 4 fold
CN1CC[C@]23c4c5ccc(O)c4O[C@H]2c2ncccc2C[C@@]3(O)[C@H]1C5 [7b, 6,7-Didehydro-3,14-dihydroxy-4,5α-epoxy-17-methylpyrido[2′,3′:6,7]morphinan]	> 230 °C	18 ± 1.4 nM	15	264 ± 18 nM	0.4	7.9 ± 0.23 nM	> 1000 nM	40 ± 2%	> 1000 nM	yes	A50 (mice; icv, mouse tail-flick): 67.1 nmol
CN1CC[C@]23c4c5ccc(O)c4O[C@H]2c2ncccc2C[C@H]3[C@H]1C5 [7f, 6,7-Didehydro-4,5α-epoxy-3-hydroxy-17-methylpyrido[2′,3′:6,7]morphinan]	164 to 166 °C	8 ± 0.8 nM	8	66 ± 2 nM	2.0	13 ± 0.5 nM	595 ± 48 nM	44 ± 1%	> 1000 nM	no	EC50 (μ receptor [3]): 502 ± 76 nM; IC50 [4]: 152 ± 25.5 nM; blockade of agonist activity in the MVD by antagonists ([4]; naloxone and ICI-174,864): blocked by the nonselective antagonist naloxone but not by the δ selective antagonist ICI-174,864; % nociception @ 100 nmol (mice; icv, mouse tail-flick): 75% @100 nmol; factor that prevented determining the A50 value (mice; icv, mouse tail-flick): insensitivity to naloxone
CN1CC[C@]23c4c5ccc(O)c4O[C@H]2c2ncc(-c4ccccc4)cc2C[C@H]3[C@H]1C5 [7g, 6,7-Didehydro-4,5α-epoxy-3-hydroxy-17-methyl-5′-phenylpyrido[2′,3′:6,7]morphinan]	–	1.9 ± 0.09 nM	43	81 ± 5 nM	13	24 ± 2 nM	> 1000 nM	60%	> 1000 nM	yes	IC50 [4]: 48.4 ± 8.65 nM; % nociception @ 100 nmol (mice; icv, mouse tail-flick): 48% @ 100 nmol; toxicity preventing A50 determination (mice; icv, mice): toxicity
CN1CC[C@]23c4c5ccc(O)c4O[C@H]2c2ncc(-c4ccc(Br)cc4)cc2C[C@H]3[C@H]1C5 [7i, 5′-(4-Bromophenyl)-6,7-didehydro-4,5α-epoxy-3-hydroxy-17-methylpyrido[2′,3′:6,7]morphinan]	186 to 188 °C	5 ± 0.6 nM	18	91 ± 6 nM	40	200 ± 11 nM	–	59 ± 3%	> 1000 nM	yes	IC50 (δ receptor [1]): 55 nM; maximum percentage inhibition of SNC-80 stimulated [35S]GTP-γ-S binding (δ receptor [5]): 69±3%; Ki (κ receptor): 265 ± 29 nM; Kb [6]: 20 ± 6.59 nM; A50 (mice; icv, mouse tail-flick): 47.2 nmol
Oc1ccc2c3c1O[C@H]1c4ncc(-c5ccc(Cl)cc5)cc4C[C@H]4[C@@H](C2)N(CC2CC2)CC[C@]314 [7l, 5′-(4-Chlorophenyl)-17-(cyclopropylmethyl)-6,7-didehydro-4,5α-epoxy-3-hydroxypyrido[2′,3′:6,7]morphinan]	178 to 180 °C	2.6 ± 0.12 nM	2.3	6 ± 0.3 nM	24	62 ± 3 nM	1.56 ± 0.14 nM	–	–	–	Ki (κ receptor): 11.2 ± 0.62 nM; Kb [6]: 6 ± 1.33 nM; % nociception @ 300 nmol (mice; icv, 300 nmol, mouse tail-flick): 18% @ 300 nmol; factor that prevented determining the A50 value (mice; icv, mouse tail-flick): lack of efficacy
COc1ccc2c3c1O[C@H]1c4ncccc4C[C@@]4(O)[C@@H](C2)N(C)CC[C@]314 [7m, 6,7-Didehydro-4,5α-epoxy-14-hydroxy-3-methoxy-17-methylpyrido[2′,3′:6,7]morphinan]	210 to 212 °C	143 ± 9 nM	–	–	–	–	–	–	–	–	–
COc1ccc2c3c1O[C@H]1c4ncc(-c5ccc(Cl)cc5)cc4C[C@@]4(O)[C@@H](C2)N(C)CC[C@]314 [7o, 5′-(4-chlorophenyl)-6,7-didehydro-4,5α-epoxy-14-hydroxy-3-methoxy-17-methyl-pyrido[2′,3′:6,7]morphinan]	112 to 114 °C	21 ± 2 nM	–	–	–	–	–	–	–	–	–
COc1ccc2c3c1O[C@H]1c4ncc(-c5ccc(Cl)cc5)cc4C[C@H]4[C@@H](C2)N(CC2CC2)CC[C@]314 [7q, 5′-(4-chlorophenyl)-17-(cyclopropylmethyl)-6,7-didehydro-4,5α-epoxy-3-methoxypyrido[2′,3′:6,7]morphinan]	196 to 198 °C	41 ± 3 nM	–	–	–	–	–	–	–	–	–
C[C@@H](NC(=O)[C@@H](N)Cc1ccc(O)cc1)C(=O)NCC(=O)N(C)[C@@H](Cc1ccccc1)C(=O)NCCO [DAMGO, reference compound]	–	–	–	–	–	–	–	100%	–	–	EC50 (μ receptor [3]): 414 nM
CN1CC[C@]23c4c5ccc(O)c4O[C@H]2[C@@H](O)C=C[C@H]3[C@H]1C5 [Morphine, reference compound]	–	–	–	–	–	–	–	–	–	yes	A50 (mice; icv, mouse tail-flick): 4.2 nmol
C=CCN1C[C@H](C)N([C@H](c2ccc(C(=O)N(CC)CC)cc2)c2cccc(OC)c2)C[C@H]1C [SNC80, reference compound]	–	–	–	–	–	–	–	–	–	–	EC50 (δ receptor [1]): 758 ± 131 nM; Emax (δ receptor [1]; read-out: agonist activity Emax % δ): 100%
